Where two headings read alike, the source gives them in different places.
Key:
HL-60 human AML cells = type: in vivo, SCID mice; conditions: for reduction in percentage of human CD33+/CD45+ tumor cells in the BM: vs vehicle control
Experimental: In this study, Compound 1 antitumor activity in the HL-60 IV AML xenograft model was studies. In this model, HL-60 human AML cells engraft in host BM and internal organs (eg, spleen, liver) and animals develop progressive peripheral leukocytosis. Female severe combined immunodeficiency (SCID) mice were inoculated with HL-60 cells by tail vein injection. To understand the effect of Compound 1 on the xenografted HL-60 cells, animals were dosed intraperitoneal (IP) with vehicle or Compound 1 (0.5, 1, 2.5, and 5 mg/kg) once daily (QD)×5 between Weeks 3 and 4 post-engraftment (AP6516, survival study) or animals were dosed IP twice daily (BID) with vehicle or Compound 1 for 5 or 10 consecutive days (5 mg/kg BID×5 or 2.5 mg/kg, BID×10) between Weeks 6 and 8 post-engraftment (Study AP6982, % human CD33+[hCD33+] cells in BM).
In this study, different Compound 1 dosing schedules (5 mg/kg, BID×5 consecutive days versus 2.5 mg/kg, BID×10 consecutive days) were studied while maintaining the total amount of drug administered constant. Vehicle control animals were treated with 5% N-methyl-2-pyrrolidone (NMP)/45% PEG 400/50% saline. Treatment was initiated 6 weeks post inoculation. Vehicle and Compound 1 treatment groups were terminated either on Day 7 (following 5 consecutive days of 5 mg/kg twice a day [BID] Compound 1) or on Day 11 (following 10 consecutive days of 2.5 mg/kg BID Compound 1) post treatment initiation. The primary endpoint for the study was percentage of hCD33+/CD45+ cells in the BM by FACS analysis. Additional endpoints included cell viability, body weight, and BM histology.
HL-60 cells were identified from femur bone marrow samples by FACS analysis as CD33+/CD45+ with human specific antibodies. The percentage of human CD33+/CD45+ cells in the BM of vehicle-treated animals from the BID×5 and BID×10 groups were 47.5±6% and 55.2±6%, respectively.

NB-4 = experiment: CellTiter-Glo (CTG) cell proliferation assay, 72 hours; type: cell-based, human
Experimental: (§1) Preparation of Solutions of Test Article: Compounds were plated into black 384-well plates (Corning Inc.) to a final DMSO volume of 0.1% assuming a maximal volume of 50 μL. A 10-point dose response starting at 10 μM with a 1:3 dilution was printed in duplicate by acoustic dispense using the EDC ATS-100 platform.
(§2) Cell Proliferation Assays: The effect of Compound 1 on the proliferation/viability of the hematological cell lines (Table 1 Table, Table 2 and Table 3), THLE-2, or PBMCs was assessed after 72 hours incubation using CTG (Promega), according to manufacturer's instructions. Hematological cell lines were dispensed into compound plates by a Multidrop™ Combi Reagent Dispenser (Thermo Scientific, Waltham, Mass.) at a concentration of 0.1 to 0.3×10^6 cells per mL in a 50 μL total volume. THLE-2 cells were seeded out at 1000 cells per well in 50 μL volume and incubated for 72 hours. At 72 hours, 25 μL per well of CTG was dispensed by a Multidrop™ Combi Reagent Dispenser and adenosine triphosphate (ATP) release by viable cells was measured as relative luminescence units after 30 minutes using the Envision platform.
(§3) Proliferation was assessed using the CellTitre-Glo® assay. Results for cultures incubated with Compound 1 were normalized to results for control cultures for each cell line. The IC50 for inhibition of cell growth by Compound 1 was determined for each cell line using ActivityBase software.
(§4) Cultures of 11 different AML cell lines were incubated 72 hours with Compound 1 at concentrations of 0.5 nM to 10 μM. Proliferation was assessed using the CellTitre-Glo® assay. Results for cultures incubated with Compound 1 were normalized to results for control cultures for each cell line. Inhibition of cell growth was also determined in THLE-2 cells at Compound 1 concentrations of 0.1 nM to 100 μM and in PBMCs at Compound 1 concentrations of 0.5 nM to […]. The Compound 1 therapeutic window was calculated using area under the curve (AUC; Activity Area [Barretina et al, Nature (2012) 483603-607] measurements (in arbitrary units) as determined using GraphPad Prism software for plots of cell proliferation vs concentration and dividing the AUC for the immortalized (but nontumorigenic) human THLE-2 hepatocyte cell line or PBMCs by the AUC for the AML cell line.

Kasumi-1 = experiment: as above; type: cell-based, human
Experimental: as §1, §2, §3, §4

KG-1a = experiment: as above; type: cell-based, human
Experimental: as §1, §2, §3, §4

HL-60 = experiment: as above; type: cell-based, human
Experimental: as §1, §2, §3, §4

HNT-34 = experiment: as above; type: cell-based, human; conditions: for IC50: Homo sapiens
Experimental: as §1, §2, §3, §4

MOLM-13 = experiment: as above; type: cell-based, human
Experimental: as §1, §2, §3, §4

HNT-34 cells and PBMCs = experiment: JC-1 mitochondrial membrane potential assay; type: cell-based, human; conditions: HNT-34 cells over non-pre-activated PBMCs; 0.1 μM Compound 1; 72 hours
[1] = NB-4, AUC PBMCs divided by AUC AML cell line
[2] = NB-4, AUC THLE-2 divided by AUC AML cell line
[3] = Kasumi-1, AUC PBMCs divided by AUC AML cell line
[4] = Kasumi-1, AUC THLE-2 divided by AUC AML cell line
[5] = AUC PBMCs divided by AUC AML cell line
[6] = AUC THLE-2 divided by AUC AML cell line
[7] = HL-60, AUC PBMCs divided by AUC AML cell line
[8] = HL-60, AUC THLE-2 divided by AUC AML cell line
[9] = HNT-34, AUC PBMCs divided by AUC AML cell line
[10] = HNT-34, AUC THLE-2 divided by AUC AML cell line
[11] = MOLM-13, AUC PBMCs divided by AUC AML cell line
[12] = MOLM-13, AUC THLE-2 divided by AUC AML cell line

With O=C1CCC(N2Cc3cc(CNC(=O)C(F)(F)c4ccc(Cl)cc4)ccc3C2=O)C(=O)N1 (stereo not drawn) [Compound 1, 2-(4-chlorophenyl)-N-((2-(2,6-dioxopiperidin-3-yl)-1-oxoisoindolin-5-yl)methyl)-2,2-difluoroacetamide] the “human CD33+/CD45+ cells in the BM” value (HL-60 human AML cells; 2.5 mg/kg IP BID×10) was 15.7%, the “reduction in percentage of human CD33+/CD45+ tumor cells in the BM” value (HL-60 human AML cells; 2.5 mg/kg IP BID×10, p<0.0001) was 71.5% and the “human CD33+/CD45+ cells in the BM” value (HL-60 human AML cells; 5 mg/kg IP BID×5) was 21.9%. For the same molecule, the “reduction in percentage of human CD33+/CD45+ tumor cells in the BM” value (HL-60 human AML cells; 5 mg/kg IP BID×5, p=0.0013) was 54.0%, the IC50 (NB-4; Homo sapiens, NB-4, 72 h, read-out: Proliferation IC50 (mean ± SD)) was 17 ± 5 nM and the “Therapeutic Window Method 1 As Compared with PBMCs” value (NB-4; [1]) was 17. For the same molecule, the “Therapeutic Window Method 2 As Compared with PBMCs” value (NB-4; [1]) was 10.1, the “Therapeutic Window Method 1 As Compared with THLE-2 Cells” value (NB-4; [2]) was 27 and the “Therapeutic Window Method 2 As Compared with THLE-2 Cells” value (NB-4; [2]) was 38.1. The AUC (NB-4; NB-4, Activity Area of proliferation vs concentration, 72 hours, 0.5 nM to 10 μM) was 14.4 arbitrary units, the IC50 (Kasumi-1; Homo sapiens, Kasumi 1, 72 h, read-out: Proliferation IC50 (mean ± SD)) was 21 ± 13 nM and the “Therapeutic Window Method 1 As Compared with PBMCs” value (Kasumi-1; [3]) was 6.6. The “Therapeutic Window Method 2 As Compared with PBMCs” value (Kasumi-1; [3]) was 3.8, the “Therapeutic Window Method 1 As Compared with THLE-2 Cells” value (Kasumi-1; [4]) was 10 and the “Therapeutic Window Method 2 As Compared with THLE-2 Cells” value (Kasumi-1; [4]) was 14.5. The AUC (Kasumi-1; Kasumi-1, Activity Area of proliferation vs concentration, 72 hours, 0.5 nM to 10 μM) was 37.9 arbitrary units, the “Therapeutic Window Method 1 As Compared with PBMCs” value (KG-1a; [5]) was 2.6 and the “Therapeutic Window Method 2 As Compared with PBMCs” value (KG-1a; [5]) was 1.5. The “Therapeutic Window Method 1 As Compared with THLE-2 Cells” value (KG-1a; [6]) was 4.1, the “Therapeutic Window Method 2 As Compared with THLE-2 Cells” value (KG-1a; [6]) was 5.7 and the AUC (KG-1a; Activity Area of proliferation vs concentration, 72 hours, 0.5 nM to 10 μM) was 96.9 arbitrary units. For the same molecule, the IC50 (KG-1a; Homo sapiens, 72 h, read-out: Proliferation IC50 (mean ± SD)) was 21 ± 10 nM, the “Therapeutic Window Method 1 As Compared with PBMCs” value (HL-60; [7]) was 11 and the “Therapeutic Window Method 2 As Compared with PBMCs” value (HL-60; [7]) was 6.1. The “Therapeutic Window Method 1 As Compared with THLE-2 Cells” value (HL-60; [8]) was 17, the “Therapeutic Window Method 2 As Compared with THLE-2 Cells” value (HL-60; [8]) was 23.2 and the AUC (HL-60; HL-60, Activity Area of proliferation vs concentration, 72 hours, 0.5 nM to 10 μM) was 23.7 arbitrary units. The IC50 (HL-60; Homo sapiens, HL-60, 72 h, read-out: Proliferation IC50 (mean ± SD)) was 20 ± 10 nM, the “Therapeutic Window Method 1 As Compared with PBMCs” value (HNT-34; [9]) was 36 and the “Therapeutic Window Method 2 As Compared with PBMCs” value (HNT-34; [9]) was 21. For the same molecule, the “Therapeutic Window Method 1 As Compared with THLE-2 Cells” value (HNT-34; [10]) was 57, the “Therapeutic Window Method 2 As Compared with THLE-2 Cells” value (HNT-34; [10]) was 79.5 and the AUC (HNT-34; HNT-34, Activity Area of proliferation vs concentration, 72 hours, 0.5 nM to 10 μM) was 6.9 arbitrary units. For the same molecule, the IC50 (HNT-34; HNT-34, 72 h, read-out: Proliferation IC50 (mean ± SD)) was 3 ± 1 nM, the IC50 (HNT-34; HNT-34 as sensitive positive control cell line in PBMC comparison, 72 hours, read-out: CTG IC50) was 2 nM and the IC50 (MOLM-13; Homo sapiens, MOLM-13, 72 h, read-out: Proliferation IC50 (mean ± SD)) was 75 ± 33 nM. The “Therapeutic Window Method 1 As Compared with PBMCs” value (MOLM-13; [11]) was 6.3, the “Therapeutic Window Method 2 As Compared with PBMCs” value (MOLM-13; [11]) was 3.7 and the “Therapeutic Window Method 1 As Compared with THLE-2 Cells” value (MOLM-13; [12]) was 9.9. For the same molecule, the “Therapeutic Window Method 2 As Compared with THLE-2 Cells” value (MOLM-13; [12]) was 13.9, the AUC (MOLM-13; MOLM-13, Activity Area of proliferation vs concentration, 72 hours, 0.5 nM to 10 μM) was 39.6 arbitrary units and the “difference in increase of membrane depolarization” value (HNT-34 cells and PBMCs) was about 7 fold.

— patent publication US11590117B2, “Treatment of a hematologic malignancy with 2-(4-chlorophenyl)-n-((2-(2,6-dioxopiperidin-3-yl)-1-oxoisoindolin-5-yl)methyl)-2,2-difluoroacetamide” (priority 2016, dated 2023)
